From patent US20060276464A1, “Diarylsulfone sulfonamides and use thereof” (Wyeth, priority 2005, published 2006)
Where “and” joins values, the source holds several entries; their conditions need not be identical. Equal values may be shown once. Read-outs that look alike come from different tables or passages of the source.

Assays:
SFRP-1 [1] = target: T1, SFRP-1 (Homo sapiens, UniProt Q8N474); assay: Fluorescence polarization binding assay (competitive displacement of a probe compound from SFRP-1); conditions: fluorescence anisotropy, 45 nM SFRP-1, 20 nM probe;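 further: test compound competes with a fluorescent probe held by SFRP-1, seen as a drop in probe anisotropy after incubation in darkness, with anisotropy as function of rising compound dose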
T1 sequence (Q8N474 32-314): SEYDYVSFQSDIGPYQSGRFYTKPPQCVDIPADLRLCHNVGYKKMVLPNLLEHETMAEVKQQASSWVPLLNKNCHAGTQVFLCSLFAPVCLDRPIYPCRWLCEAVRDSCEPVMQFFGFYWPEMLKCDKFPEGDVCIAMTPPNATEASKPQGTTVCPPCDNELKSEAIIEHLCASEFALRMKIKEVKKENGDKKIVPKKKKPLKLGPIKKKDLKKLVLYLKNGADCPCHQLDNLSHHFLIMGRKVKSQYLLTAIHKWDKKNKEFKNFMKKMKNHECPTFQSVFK

SFRP-1 [2] = target: T1, SFRP-1; assay: Cell-based assay for in vitro measurement of SFRP-1/SARP2 antagonist activity (U2OS cells co-transfected with 16x TCF-tk-Luciferase reporter, Wnt and hSFRP-1); conditions: for fold induction at 15 µM / fold induction at 10 µM: U2OS; for fold induction at 15 µM: single dose, luciferase reporter; for fold induction at 10 µM: read-out: Fold Induction with SFRP-1, U2OS cells, single dose 10 μM, luciferase reporter, fold induction over SFRP-1 control;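 on all read-outs here: U2OS cells co-transfected with a TCF-tk luciferase reporter, a Wnt vector, hSFRP-1 or empty vector and CMV-βgal, luciferase luminescence read in cell lysates alongside βgal activity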
[3] = read-out: Fold Induction with SFRP-1, Conc 15 μM, fold induction over SFRP-1 control, cells with SFRP-1
[4] = read-out: Fold Induction without SFRP-1, Conc 15 μM, cells without SFRP-1 (specificity control)

Row | SMILES | IC50 (SFRP-1 [1]) | fold induction at 15 µM (SFRP-1 [2]; [3]) | fold induction at 15 µM (SFRP-1 [2]; [4]) | melting point [°C] | EC50 (SFRP-1 [2]) [µM] | fold induction at 10 µM (SFRP-1 [2])
1 | CC(C)c1cc(C(C)C)c(S(=O)(=O)c2ccc(F)cc2)cc1S(=O)(=O)NCCC1CCOCC1 [Example 630, 5-[(4-Fluorophenyl)sulfonyl]-2,4-diisopropyl-N-[2-(tetrahydro-2H-pyran-4-yl)ethyl]benzenesulfonamide] | 4 µM | 2.2 | 1 | 141 to 143 |  | 
2 | CCCc1ccc(S(=O)(=O)c2ccc(F)cc2)cc1S(=O)(=O)NCCc1ccncc1 [Example 875, 5-[(4-Fluorophenyl)sulfonyl]-2-propyl-N-(2-pyridin-4-ylethyl)benzenesulfonamide] | 0.6 µM |  |  | 160 to 162 | 6.65 | 1.6
3 | CC(C)c1ccc(S(=O)(=O)c2ccccc2)cc1S(=O)(=O)NC1CCN(C(=O)c2cccc3ccccc23)CC1 [Example 808, 2-Isopropyl-N-[1-(1-naphthoyl)piperidin-4-yl]-5-(phenylsulfonyl)benzenesulfonamide] | 0.5 µM |  |  | 163 to 165 | 0.945 | 3.7
4 | CCCc1ccc(S(=O)(=O)c2ccc(F)cc2)cc1S(=O)(=O)NCCc1cccnc1 [Example 874, 5-[(4-Fluorophenyl)sulfonyl]-2-propyl-N-(2-pyridin-3-ylethyl)benzenesulfonamide] | 1.95 µM |  |  | 111 to 113 | 2 | 3.1
5 | CC(C)c1ccc(S(=O)(=O)c2ccccc2)cc1S(=O)(=O)NC1CCN(C(=O)c2cccc(F)c2)CC1 [Example 804, N-[1-(3-Fluorobenzoyl)piperidin-4-yl]-2-isopropyl-5-(phenylsulfonyl)benzenesulfonamide] | 0.3 µM |  |  | 215 to 218 |  | 3
6 | CC(C)c1cc(C(C)C)c(S(=O)(=O)c2ccccc2)cc1S(=O)(=O)NCCc1ccccc1 [Example 609, 2,4-Diisopropyl-N-(2-phenylethyl)-5-(phenylsulfonyl)benzenesulfonamide] | 2.1 µM | 1.4 | 1.1 | 156 to 158 |  | 
7 | CC(C)c1cc(C(C)C)c(S(=O)(=O)c2ccc(F)cc2)cc1S(=O)(=O)NCC1CCOCC1 [Example 629, 5-[(4-Fluorophenyl)sulfonyl]-2,4-diisopropyl-N-(tetrahydro-2H-pyran-4-ylmethyl)benzenesulfonamide] | 3 µM | 2.1 | 1 | 200 to 202 |  | 
8 | CCCc1ccc(S(=O)(=O)c2ccc(F)cc2)cc1S(=O)(=O)NCCc1ccccn1 [Example 564, 5-[(4-Fluorophenyl)sulfonyl]-2-propyl-N-(2-pyridin-2-ylethyl)benzenesulfonamide] | 1.4 µM and 1.6 µM | 3.3 | 1.3 | 113 to 115 |  | 
9 | O=S(=O)(NCCc1ccccc1)c1cc(S(=O)(=O)c2ccccc2)ccc1C(F)(F)F [Example 570, N-(2-Phenylethyl)-5-(phenylsulfonyl)-2-(trifluoromethyl)-benzenesulfonamide] | 0.16 µM | 2.4 | 1.2 | 151 to 153 |  | 
10 | CC(C)c1cc(C(C)C)c(S(=O)(=O)c2ccccc2)cc1S(=O)(=O)NCC1CCOCC1 [Example 611, 2,4-Diisopropyl-5-(phenylsulfonyl)-N-(tetrahydro-2H-pyran-4-ylmethyl)benzenesulfonamide] | 1.3 µM | 2.6 | 1.1 | 148 to 150 |  | 
11 | CC(C)c1ccc(S(=O)(=O)c2ccccc2)cc1S(=O)(=O)NC1CCN(C(=O)c2cccc(C#N)c2)CC1 [Example 810, N-[1-(3-Cyanobenzoyl)piperidin-4-yl]-2-isopropyl-5-(phenylsulfonyl)benzenesulfonamide] | 0.29 µM |  |  | 120 to 122 | 0.818 | 3.1
